In patent US20170022171A1, “2,5-DISUBSTITUTED CYCLOPENTANECARBOXYLIC ACIDS AND THEIR USE” (Bayer Pharma Aktiengesellschaft, priority 2014, published 2017):

What was measured:
Assay type in all cases: biochemical
[1] = target: T1, human macrophage elastase (HME/hMMP-12) (Homo sapiens, UniProt P39900); assay: In vitro HME inhibition test (standard or high-sensitivity); settings: in some cases mean values
T1 construct: 0.5 nM HME; purchased R&D Systems 917-MP
How it was run: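 Fluorogenic assay: 0.5 nM autoactivated HME with 5 µM Mca-Pro-Leu-Gly-Leu-Glu-Glu-Ala-Dap(Dnp)-NH2 in HEPES pH 7.4 buffer (NaCl, CaCl2, ZnCl2, EDTA, Brij), 2 h at 37 °C; ex 323/em 393 nm. IC50 from fluorescence versus concentration. High-sensitivity format: ~0.05 nM enzyme, ~16 h incubation.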

MMP-1 = target: T2, MMP-1 (Homo sapiens, UniProt P03956); assay: In vitro MMP-1 inhibition test
T2 construct: purchased R&D Systems 901-MP
T2 sequence (P03956 100-469): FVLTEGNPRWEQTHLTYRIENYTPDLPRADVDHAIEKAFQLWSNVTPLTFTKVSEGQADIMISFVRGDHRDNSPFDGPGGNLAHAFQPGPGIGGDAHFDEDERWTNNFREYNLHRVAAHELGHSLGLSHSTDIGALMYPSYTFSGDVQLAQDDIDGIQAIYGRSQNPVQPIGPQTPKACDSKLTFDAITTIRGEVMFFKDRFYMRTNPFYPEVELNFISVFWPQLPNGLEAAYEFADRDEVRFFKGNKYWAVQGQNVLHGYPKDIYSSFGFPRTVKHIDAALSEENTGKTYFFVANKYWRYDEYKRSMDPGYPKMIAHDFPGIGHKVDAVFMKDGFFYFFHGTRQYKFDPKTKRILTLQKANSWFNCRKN
How it was run: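 APMA-activated recombinant enzyme (e.g. 2 nM final) in 50 mM Tris/HCl pH 7.5, 10 mM CaCl2, 150 mM NaCl, 0.05% Brij-35 with compound in DMSO (e.g. 1 nM–30 μM). Quenched Mca-Pro-Leu-Gly-Leu-Dpa(Dnp)-Ala-Arg-NH2 substrate (e.g. 10 μM) started reaction; fluorescence (ex 320/em 410 nm) followed e.g. 120 min at 32° C; IC50 at 50% signal.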

MMP-7 = target: T3, MMP-7 (Homo sapiens, UniProt P09237); assay: In vitro MMP-7 inhibition test
T3 construct: purchased R&D Systems 907-MP
T3 sequence (P09237 95-267): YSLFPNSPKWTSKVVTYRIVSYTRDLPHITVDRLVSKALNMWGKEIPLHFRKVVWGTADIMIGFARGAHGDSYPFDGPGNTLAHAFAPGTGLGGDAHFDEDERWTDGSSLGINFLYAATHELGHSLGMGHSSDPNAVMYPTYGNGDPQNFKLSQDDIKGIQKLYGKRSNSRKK
How it was run: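 APMA-activated recombinant MMP-7 (e.g. 0.5 nM final) in Tris/HCl pH 7.5 with CaCl2, NaCl and Brij-35; started with quenched fluorogenic Mca-PLGL-Dpa(Dnp)-AR-NH2 substrate (e.g. 10 μM final). Fluorescence (ex 320/em 410 nm) followed e.g. over 120 min at 32° C; IC50 is the concentration giving 50% signal.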

MMP-9 = target: T4, MMP-9 (Homo sapiens, UniProt P14780); assay: In vitro MMP-9 inhibition test
T4 construct: purchased R&D Systems 911-MP
How it was run: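 Recombinant MMP-9 was APMA-activated and used at e.g. 0.1 nM final in 50 mM Tris/HCl pH 7.5, 10 mM CaCl2, 150 mM NaCl, 0.05% Brij-35, with compound at e.g. 1 nM to 30 μM. Quenched Mca-Pro-Leu-Gly-Leu-Dpa(Dnp)-Ala-Arg-NH2 substrate (e.g. 10 μM) was followed by fluorescence (ex 320/em 410 nm), e.g. 120 min at 32 °C. IC50 corresponds to 50% signal.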

T1 sequence (P39900 106-470): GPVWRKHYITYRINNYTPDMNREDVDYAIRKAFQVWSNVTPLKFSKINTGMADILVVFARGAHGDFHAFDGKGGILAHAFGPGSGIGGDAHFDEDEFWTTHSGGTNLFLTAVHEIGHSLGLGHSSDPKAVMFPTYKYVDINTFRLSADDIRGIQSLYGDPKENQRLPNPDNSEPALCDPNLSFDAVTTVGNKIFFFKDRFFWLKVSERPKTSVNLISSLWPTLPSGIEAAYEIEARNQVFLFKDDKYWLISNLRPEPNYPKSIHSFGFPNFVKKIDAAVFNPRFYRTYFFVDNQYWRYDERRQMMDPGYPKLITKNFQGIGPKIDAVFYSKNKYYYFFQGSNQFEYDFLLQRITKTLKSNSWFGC
T4 sequence (P14780 107-707 limits assumed): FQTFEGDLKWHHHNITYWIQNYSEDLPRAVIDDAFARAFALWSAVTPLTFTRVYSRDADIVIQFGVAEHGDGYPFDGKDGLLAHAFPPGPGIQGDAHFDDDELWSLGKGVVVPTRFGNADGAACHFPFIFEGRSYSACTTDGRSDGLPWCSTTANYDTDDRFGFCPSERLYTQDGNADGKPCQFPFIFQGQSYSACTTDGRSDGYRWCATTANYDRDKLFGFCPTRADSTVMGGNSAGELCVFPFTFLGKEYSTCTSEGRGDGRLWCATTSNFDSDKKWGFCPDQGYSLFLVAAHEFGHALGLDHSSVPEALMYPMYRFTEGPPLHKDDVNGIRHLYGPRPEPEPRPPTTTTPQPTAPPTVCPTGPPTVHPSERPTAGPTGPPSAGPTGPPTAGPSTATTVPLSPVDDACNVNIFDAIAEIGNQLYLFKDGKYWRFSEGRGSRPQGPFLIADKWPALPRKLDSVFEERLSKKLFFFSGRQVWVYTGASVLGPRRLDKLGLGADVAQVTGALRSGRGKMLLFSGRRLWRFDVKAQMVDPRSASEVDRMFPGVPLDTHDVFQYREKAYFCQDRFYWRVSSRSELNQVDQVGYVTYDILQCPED

Compound | IC50 [1] | IC50 (MMP-1) | IC50 (MMP-7) | IC50 (MMP-9)
O=C(O)[C@@H]1[C@@H](Cn2nnc3ccc(C(F)(F)F)cc3c2=O)CC[C@H]1C(=O)c1ccc(SCc2ccccc2)cc1 (single isomer, unassigned) [Example 75, (+)-(1RS,2RS,5SR)-2-[4-(Benzylsulphanyl)benzoyl]-5-{[4-oxo-6-(trifluoromethyl)-1,2,3-benzotriazin-3(4H)-yl]methyl}cyclopentanecarboxylic acid] | 0.051 nM | 21000 nM | 340 nM | 470 nM
O=C(O)[C@@H]1[C@@H](Cn2nnc3ccc(C(F)(F)F)cc3c2=O)CC[C@H]1C(=O)c1ccc(SCc2cccc(Cl)c2)cc1 (single isomer, unassigned) [Example 77, (+)-(1RS,2RS,5SR)-2-{4-[(3-Chlorobenzyl)sulphanyl]benzoyl}-5-{[4-oxo-6-(trifluoromethyl)-1,2,3-benzotriazin-3(4H)-yl]methyl}cyclopentanecarboxylic acid] | 0.04 nM | 2900 nM | 150 nM | 550 nM
O=C(O)[C@@H]1[C@@H](Cn2nnc3ccc(C(F)(F)F)cc3c2=O)CC[C@H]1C(=O)c1ccc(SCc2ccc(Cl)c(Cl)c2)cc1 (single isomer, unassigned) [Example 80, (+)-(1RS,2RS,5SR)-2-{4-[(3,4-Dichlorobenzyl)sulphanyl]benzoyl}-5-{[4-oxo-6-(trifluoromethyl)-1,2,3-benzotriazin-3(4H)-yl]methyl}cyclopentanecarboxylic acid] | 0.079 nM | 2500 nM | 200 nM | 780 nM
Cc1ccc2nnn(C[C@H]3CC[C@@H](C(=O)c4ccc(OCc5ccccc5)cc4)[C@@H]3C(=O)O)c(=O)c2c1 (single isomer, unassigned) [Example 92, (+)-(1RS,2RS,5SR)-2-[4-(Benzyloxy)benzoyl]-5-[(6-methyl-4-oxo-1,2,3-benzotriazin-3(4H)-yl)methyl]cyclopentanecarboxylic acid] | 0.048 nM | 3100 nM | 110 nM | 13 nM
Cc1cccc(COc2ccc(C(=O)[C@@H]3CC[C@H](Cn4nnc5ccc(C)cc5c4=O)[C@H]3C(=O)O)cc2)c1 (single isomer, unassigned) [Example 98, (+)-(1RS,2RS,5SR)-2-{4-[(3-Methylbenzyl)oxy]benzoyl}-5-[(6-methyl-4-oxo-1,2,3-benzotriazin-3(4H)-yl)methyl]cyclopentanecarboxylic acid] | 0.1 nM | 9600 nM | 330 nM | 280 nM
Cc1ccc2nnn(C[C@H]3CC[C@@H](C(=O)c4ccc(OCc5cccc(C(F)(F)F)c5)cc4)[C@@H]3C(=O)O)c(=O)c2c1 (single isomer, unassigned) [Example 101, (+)-(1RS,2SR,5RS)-2-[(6-Methyl-4-oxo-1,2,3-benzotriazin-3(4H)-yl)methyl]-5-(4-{[3-(trifluoromethyl)benzyl]oxy}benzoyl)cyclopentanecarboxylic acid] | 0.086 nM | 14000 nM | 720 nM | 100 nM
Cc1ccc2nnn(C[C@H]3CC[C@@H](C(=O)c4ccc(OCc5cccc(Cl)c5)cc4)[C@@H]3C(=O)O)c(=O)c2c1 (single isomer, unassigned) [Example 104, (+)-(1RS,2RS,5SR)-2-{4-[(3-Chlorobenzyl)oxy]benzoyl}-5-[(6-methyl-4-oxo-1,2,3-benzotriazin-3(4H)-yl)methyl]cyclopentanecarboxylic acid] | 0.12 nM | 3900 nM | 270 nM | 110 nM
COc1cccc(COc2ccc(C(=O)[C@@H]3CC[C@H](Cn4nnc5ccc(C)cc5c4=O)[C@H]3C(=O)O)cc2)c1 (single isomer, unassigned) [Example 107, (+)-(1RS,2RS,5SR)-2-{4-[(3-Methoxybenzyl)oxy]benzoyl}-5-[(6-methyl-4-oxo-1,2,3-benzotriazin-3(4H)-yl)methyl]cyclopentanecarboxylic acid] | 0.035 nM | 11000 nM | 200 nM | 89 nM
Cc1ccc2nnn(C[C@H]3CC[C@@H](C(=O)c4ccc(OCc5cccc(OC(F)(F)F)c5)cc4)[C@@H]3C(=O)O)c(=O)c2c1 (single isomer, unassigned) [Example 110, (+)-(1RS,2SR,5RS)-2-[(6-Methyl-4-oxo-1,2,3-benzotriazin-3(4H)-yl)methyl]-5-(4-{[3-(trifluoromethoxy)benzyl]oxy}benzoyl)cyclopentanecarboxylic acid] | 0.087 nM | > 40000 nM | 1200 nM | 380 nM
Cc1ccc2nnn(C[C@H]3CC[C@@H](C(=O)c4ccc(OCC5CCCCC5)cc4)[C@@H]3C(=O)O)c(=O)c2c1 (single isomer, unassigned) [Example 117, (+)-(1RS,2RS,5SR)-2-[4-(Cyclohexylmethoxy)benzoyl]-5-[(6-methyl-4-oxo-1,2,3-benzotriazin-3(4H)-yl)methyl]cyclopentanecarboxylic acid] | 0.014 nM | 4400 nM | 100 nM | 54 nM
CCCCCCOc1ccc(C(=O)[C@@H]2CC[C@H](Cn3nnc4ccc(C)cc4c3=O)[C@H]2C(=O)O)cc1 (single isomer, unassigned) [Example 121, (+)-(1RS,2RS,5SR)-2-[4-(Hexyloxy)benzoyl]-5-[(6-methyl-4-oxo-1,2,3-benzotriazin-3(4H)-yl)methyl]cyclopentanecarboxylic acid] | 0.078 nM | 13000 nM | 350 nM | 57 nM
COC(=O)Nc1cccc(COc2ccc(C(=O)[C@@H]3CC[C@H](Cn4nnc5ccc(C(F)(F)F)cc5c4=O)[C@H]3C(=O)O)cc2)c1 (stereo in doubt) [Example 31, (+)-(1RS,2RS,5SR)-2-[4-({3-[(Methoxycarbonyl)amino]benzyl}oxy)benzoyl]-5-{[4-oxo-6-(trifluoromethyl)-1,2,3-benzotriazin-3(4H)-yl]methyl}cyclopentanecarboxylic acid] | 0.012 nM | 5400 nM | 79 nM | 2100 nM
(+)-(1RS,2RS,5SR)-2-{4-[(3,4-Dichlorobenzyl)oxy]benzoyl}-5-{[4-oxo-6-(trifluoromethyl)-1,2,3-benzotriazin-3(4H)-yl]methyl}cyclopentanecarboxylic acid [Example 28] | 0.036 nM | 17000 nM | 300 nM | 260 nM
(+)-(1RS,2RS,5SR)-2-{4-[Cyclohexyl)methyl)sulphanyl]benzoyl}-5-{[4-oxo-6-(trifluoromethyl)-1,2,3-benzotriazin-3(4H)-yl]methyl}cyclopentanecarboxylic acid [Example 86] | 0.018 nM | 27000 nM | 1000 nM | 1500 nM
(+)-(1RS,2SR,5RS)-2-{[4-Oxo-6-(trifluoromethyl)-1,2,3-benzotriazin-3(4H)-yl]methyl}-5-{4-[(2-phenylethy)sulphanyl]benzoyl}cyclopentanecarboxylic acid [Example 83] | 0.11 nM | > 40000 nM | 160 nM | 2100 nM
